Reference: paper PMC6151508, “Development of Novel Nrf2/ARE Inducers Bearing Pyrazino[2,1-a]isoquinolin Scaffold with Potent In Vitro Efficacy and Enhanced Physicochemical Properties” (Molecules : A Journal of Synthetic Chemistry and Natural …, 2017)
Counter-ions that a name gives are not always drawn.

Legend:
[1] = test system: antioxidant response element (ARE); test: ARE luciferase reporter assay in HepG2-ARE-C8 cells; format: cell-based; conditions: HepG2-ARE-C8, 12 h of treatment, mean ± SD n = 3, read-out: ARE Inductivity in Luciferase Reporter Assay (induction fold)
Description: (§1) All the derivatives were evaluated for their ability to induce ARE in HepG2-ARE-C8 cell (HepG2 cells stably transfected with a luciferase reporter) by ARE luciferase reporter assay, and they were compared to the lead compound 2. At the same time, cytotoxicity studies were performed by the MTT assay against the HCT116 cells. The results of cytotoxic activity in vitro were expressed as the IC50 [18]. Because those compounds were designed for chemoprevention, they should not be cytotoxic.
HepG2-ARE-C8 cells (4 × 10^4 cells/well) were incubated overnight in 96-well plates, and then treated with different concentrations of test compounds. tBHQ was used as a positive control, DMSO was used as a negative control, and the luciferase cell culture lysis reagent was used as a blank. The medium was removed after 12 h treatment. Then, the cells were harvested in the luciferase cell culture lysis reagent together with 100 μL of cold PBS. Then, centrifuging the solution and 20 μL of the supernatant was used for determining the luciferase activity. The luciferase activity was measured by a Luminoskan Ascent (Thermo Scientific, Waltham, MA, USA). The data were obtained in triplicate and expressed as fold induction over the control. Induction fold = (RLUtest − RLUblank)/(RLUDMSOcontrol − RLUblank). RLU = relative light unit l.

[2] = MTT cell viability (cytotoxicity) assay; format: cell-based; conditions: human, HCT116 cells
Description: as §1
Cell viabilities were determined by using 3-[4,5-dimethylthiazol-2-yl]-2,5-diphenyltetrazolium bromide (MTT) assay. MTT was dissolved in (phosphate buffered solution) PBS to a concentration of 5 mg/mL. HCT116 cells (8 × 10^3 cells/well) were plated in 96-well plates and incubated overnight. Different concentrations of test compounds were added to each cell for 24 h at 37 °C, and the 20 μL MTT solution was added and incubated for an additional 4 h. Then, 100 μL of DMSO was added to dissolve formazan precipitate after the solution was removed. The OD value was determined at 570 nm by Elx800 absorbance microplate reader (BioTek, Winooski, VT, USA). IC50 value (concentration at which cell survival equals 50% of control) = […].

Row | SMILES | melting point [°C] | fold induction at 0.1 µM [1] | fold induction at 1 µM [1] | fold induction at 5 µM [1] | fold induction at 10 µM [1] | fold induction at 50 µM [1] | fold induction at 100 µM [1] | IC50 at 24 h [2] [µM]
1 | Nc1cccc(C(=O)C=C2NCC3c4ccccc4CCN3C2=O)c1 (stereo not shown) [Compound 1a, 3-(2-(3-aminophenyl)-2-oxoethylidene)-1,2,3,6,7,11b-hexahydro-4H-pyrazino[2,1-a]isoquinolin-4-one] | 206 to 208 | 0.56 ± 0.28 | 1.66 ± 0.05 | 2.4 ± 1.18 | 5.64 ± 2.06 | 7.53 ± 1.28 | 7.62 ± 2.79 | > 300
2 | Nc1ccc(C(=O)C=C2NCC3c4ccccc4CCN3C2=O)cc1 (stereo not shown) [Compound 1b, 3-(2-(4-aminophenyl)-2-oxoethylidene)-1,2,3,6,7,11b-hexahydro-4H-pyrazino[2,1-a]isoquinolin-4-one] | 238 to 240 | 1.26 ± 0.28 | 1.26 ± 0.73 | 2.78 ± 0.29 | 3.45 ± 0.03 | 2.75 ± 0.68 | 2.68 ± 0.31 | > 300
3 | CC(=O)Nc1cccc(C(=O)C=C2NCC3c4ccccc4CCN3C2=O)c1 (stereo not shown) [Compound 1c, N-(3-(2-(4-oxo-1,6,7,11b-tetrahydro-2H-pyrazino[2,1-a]isoquinolin-3(4H)-ylidene)acetyl)phenyl)acetamide] | 247 to 249 | 0.8 ± 0.19 | 0.78 ± 0.36 | 2.3 ± 0.39 | 3.05 ± 0.53 | 3.09 ± 0.09 | 3.41 ± 0.65 | > 300
4 | CC(=O)Nc1ccc(C(=O)C=C2NCC3c4ccccc4CCN3C2=O)cc1 (stereo not shown) [Compound 1d, N-(4-(2-(4-oxo-1,6,7,11b-tetrahydro-2H-pyrazino[2,1-a]isoquinolin-3(4H)-ylidene)acetyl)phenyl)acetamide] | 279 to 281 | 1.24 ± 0.23 | 1.09 ± 0.72 | 1.49 ± 0.16 | 2.94 ± 1.9 | 7.14 ± 0.34 | 10.07 ± 0.05 | > 300
5 | COC(=O)/C=C/C(=O)OC [DMF, Dimethyl fumarate, reference compound] | – | 1.04 ± 0.21 | 1.1 ± 0.11 | 1.4 ± 0.21 | 2.06 ± 0.25 | 3.34 ± 0.52 | 5.31 ± 0.24 | –

The next lines start with results.

Row | melting point [°C] | SMILES | fold induction at 0.1 µM [1] | fold induction at 1 µM [1] | fold induction at 5 µM [1] | fold induction at 10 µM [1] | fold induction at 50 µM [1] | fold induction at 100 µM [1] | IC50 at 24 h [2] [µM]
6 | 158 to 160 | CCCC(=O)C=C1NCC2c3ccccc3CCN2C1=O (stereo not shown) [Compound 2a, 3-(2-oxopentylidene)-1,2,3,6,7,11b-hexahydro-4H-pyrazino[2,1-a]isoquinolin-4-one] | 2.38 ± 0.11 | 2.28 ± 0.78 | 2.55 ± 0.31 | 3.09 ± 1.09 | 6.74 ± 0.67 | 19.6 ± 0.47 | > 300
7 | 173 to 175 | O=C(C=C1NCC2c3ccccc3CCN2C1=O)C1CC1 (stereo not shown) [Compound 2b, 3-(2-cyclopropyl-2-oxoethylidene)-1,2,3,6,7,11b-hexahydro-4H-pyrazino[2,1-a]isoquinolin-4-one] | 3.71 ± 1.41 | 3.57 ± 1.08 | 4.85 ± 0.82 | 6.58 ± 2 | 8.24 ± 0.62 | 12.9 ± 1.73 | > 300
8 | 185 to 187 | O=C(C=C1NCC2c3ccccc3CCN2C1=O)C1CCCC1 (stereo not shown) [Compound 2d, 3-(2-cyclopentyl-2-oxoethylidene)-1,2,3,6,7,11b-hexahydro-4H-pyrazino[2,1-a]isoquinolin-4-one] | 1.06 ± 0.09 | 3.19 ± 0.52 | 4.06 ± 0.3 | 7.38 ± 0.31 | 5.22 ± 1.28 | 5.83 ± 0.38 | 161
9 | 203 to 205 | O=C(C=C1NCC2c3ccccc3CCN2C1=O)C1CCCCC1 (stereo not shown) [Compound 2e, 3-(2-cyclohexyl-2-oxoethylidene)-1,2,3,6,7,11b-hexahydro-4H-pyrazino[2,1-a]isoquinolin-4-one] | 1.92 ± 0.82 | 2.17 ± 1.05 | 3.03 ± 0.68 | 3.49 ± 0.64 | 3.92 ± 0.53 | 8.31 ± 0.25 | > 300
10 | 180 to 182 | O=C(C=C1NCC2c3ccccc3CCN2C1=O)C1=CCCCC1 (stereo not shown) [Compound 2f, 3-(2-(cyclohex-1-en-1-yl)-2-oxoethylidene)-1,2,3,6,7,11b-hexahydro-4H-pyrazino[2,1-a]isoquinolin-4-one] | 3.27 ± 1.59 | 2.1 ± 0.59 | 5.46 ± 1.83 | 8.45 ± 1.05 | 3.34 ± 1.05 | 3.07 ± 0.43 | 171
11 | 270 to 272 | O=C(C=C1NCC2c3ccccc3CCN2C1=O)c1c[nH]c2ccccc12 (stereo not shown) [Compound 2g, 3-(2-(1H-indol-3-yl)-2-oxoethylidene)-1,2,3,6,7,11b-hexahydro-4H-pyrazino[2,1-a]isoquinolin-4-one] | 1.27 ± 0.52 | 2.31 ± 0.24 | 4.68 ± 0.29 | 5.84 ± 0.07 | 14.5 ± 0.36 | 9.69 ± 0.8 | > 300
12 | 245 to 247 | O=C(C=C1NCC2c3ccccc3CCN2C1=O)c1cnc2ccccc2c1 (stereo not shown) [Compound 2h, 3-(2-oxo-2-(quinolin-3-yl)ethylidene)-1,2,3,6,7,11b-hexahydro-4H-pyrazino[2,1-a]isoquinolin-4-one] | 2.06 ± 0.98 | 3.4 ± 0.02 | 3.62 ± 0.29 | 4.59 ± 0.14 | 4.38 ± 1.94 | 4.98 ± 0.53 | 92.4
13 | 235 to 237 | O=C(C=C1NCC2c3ccccc3CCN2C1=O)c1ccc(N2CCOCC2)cc1 (stereo not shown) [Compound 2i, 3-(2-(4-morpholinophenyl)-2-oxoethylidene)-1,2,3,6,7,11b-hexahydro-4H-pyrazino[2,1-a]isoquinolin-4-one] | 1.71 ± 0.71 | 1.88 ± 1.36 | 1.37 ± 0.19 | 1.66 ± 0.53 | 1.16 ± 0.63 | 1.42 ± 0.31 | 237
14 | 157 to 159 | O=C(C=C1NCC2CCCCN2C1=O)c1cccc(Cl)c1 (stereo not shown) [Compound 3c, 3-(2-(3-chlorophenyl)-2-oxoethylidene)octahydro-4H-pyrido[1,2-a]pyrazin-4-one] | 1.85 ± 0.21 | 8.41 ± 0.04 | 10.2 ± 3.44 | 11.4 ± 1.12 | 1.13 ± 1.03 | 1.33 ± 0.19 | 174
15 | 174 to 176 | O=C(C=C1NCC2CCCCN2C1=O)c1cccc([N+](=O)[O-])c1 (stereo not shown) [Compound 3d, 3-(2-(3-nitrophenyl)-2-oxoethylidene)octahydro-4H-pyrido[1,2-a]pyrazin-4-one] | 1.96 ± 0.88 | 3.85 ± 1 | 12 ± 2.55 | 19.5 ± 3.09 | 47.6 ± 3.54 | 8.66 ± 3.27 | 181
